# Results: US12515170B2, “CO2 capture and utilization system and method” (University of Kentucky Research Foundation, priority 2021, dated 2026)
# Tests used:
# [1] = tested on: Scenedesmus acutus; assay: Algae production in 800 mL bioreactors with different nitrogen sources / CO2:NH3 mole ratios; format: cell-based; conditions: constant gas sparging, nitrogen source compared, no unit in Table 8 (FIG. 33: productivity g/L/day)
# Protocol: To Examine the effect CO2:NH3 mole ratios on Scenedesmus acutus culture health and productivity, experiments were conducted in 800 mL bioreactors with constant gas sparging and different CO2:NH3 mole ratios (ranging from 7:1 up to 18:1) (FIG. 33). The “cycles” indicated in FIG. 33 refer to growth cycles of algae. In this regard, each bioreactor is normally inoculated with algae at a low concentration (e.g., 0.1 g/LO and the algae are allowed to grow until a concentration of 1 g/L is obtained. At this point, the algae are harvested until a concentration of 0.1 g/L is left in the bioreactor (with the addition of fresh nutrients and water). The algae are allowed to grow again until a concentration of 1 g/L is again reached, followed by harvesting. Each period of growth up to harvesting is characterized as a growth cycle.
# [2] = tested on: Scenedesmus acutus; conditions: same molar N concentration; 3% CO2; 21 days; n=3
# Protocol: In parallel, an experiment was performed using urea as a control (FIG. 13, tubes 1-3).
# Experiments were conducted in a temperature controlled (20-27° C.) 10 L tubular photobioreactor system (FIG. 13). An artificial light system set to a 16:8 light/dark cycle (T5 cool white fluorescent bulbs) delivered 500 micromole m^−2 s^−1 PAR of photoactive radiation. CO2 was delivered as 3% CO2/nitrogen balance from gas cylinders. The experiments ran for 21 days.
# Three times a week pH, UV-vis absorbance and dry mass measurements were made.
Structure (SMILES),growth rate [1],algae growth rates by dry mass measurements versus urea control [2],culture productivity by UV-vis absorbance at 560 nm versus urea control [2]
"NC(N)=O [Urea, urea]",0.11 ± 0.04,,
O=[N+]([O-])[O-].[Na+] [NaNO3],0.13 ± 0.05,,
"N.N.O=C(O)O [(NH4)2CO3, ammonium carbonate]",,significantly higher than for the control,significantly more productive than the control
